The values below come from ChEMBL document CHEMBL5715260, “Selectivity Literature for EUbOPEN Chemogenomic Library” (2024).

Experiment [1] addresses T1, Alpha trans-inducing protein (Human alphaherpesvirus 1) (UniProt A0A5J6DW59). The experiment in a line: Selectivity interaction (Reporter gene assay) EUB0001164a UL48. The arrangement: recommended concentration 1 uM.
For experiment [2], the target named is Nuclear receptor subfamily 2 group E member 1 (Homo sapiens) (UniProt Q9Y466). The experiment in a line: Selectivity interaction (Reporter gene assay) EUB0001164a NR2E1. On the set-up: recommended concentration 1 uM. (Reporter assays use an easily measured gene product as a stand-in for the process of interest.)
Chain of Nuclear receptor subfamily 2 group E member 1 (Homo sapiens) (Q9Y466 whole entry): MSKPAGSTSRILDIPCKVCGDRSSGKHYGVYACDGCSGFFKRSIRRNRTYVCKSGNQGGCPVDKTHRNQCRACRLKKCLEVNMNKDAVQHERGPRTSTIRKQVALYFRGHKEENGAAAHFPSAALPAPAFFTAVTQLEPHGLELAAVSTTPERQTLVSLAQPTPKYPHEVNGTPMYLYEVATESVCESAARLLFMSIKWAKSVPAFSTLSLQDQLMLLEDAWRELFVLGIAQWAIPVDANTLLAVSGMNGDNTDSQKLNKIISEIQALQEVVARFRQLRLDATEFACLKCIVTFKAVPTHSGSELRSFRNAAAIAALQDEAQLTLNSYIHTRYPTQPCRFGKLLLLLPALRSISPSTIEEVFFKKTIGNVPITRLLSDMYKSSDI
Experiment [3] deals with Steroidogenic factor 1 (Homo sapiens) (UniProt Q13285). The experiment in a line: Selectivity interaction (Reporter gene assay) EUB0001164a NR5A1. On the set-up: recommended concentration 1 uM.
Chain of Steroidogenic factor 1 (Homo sapiens) (Q13285 whole entry): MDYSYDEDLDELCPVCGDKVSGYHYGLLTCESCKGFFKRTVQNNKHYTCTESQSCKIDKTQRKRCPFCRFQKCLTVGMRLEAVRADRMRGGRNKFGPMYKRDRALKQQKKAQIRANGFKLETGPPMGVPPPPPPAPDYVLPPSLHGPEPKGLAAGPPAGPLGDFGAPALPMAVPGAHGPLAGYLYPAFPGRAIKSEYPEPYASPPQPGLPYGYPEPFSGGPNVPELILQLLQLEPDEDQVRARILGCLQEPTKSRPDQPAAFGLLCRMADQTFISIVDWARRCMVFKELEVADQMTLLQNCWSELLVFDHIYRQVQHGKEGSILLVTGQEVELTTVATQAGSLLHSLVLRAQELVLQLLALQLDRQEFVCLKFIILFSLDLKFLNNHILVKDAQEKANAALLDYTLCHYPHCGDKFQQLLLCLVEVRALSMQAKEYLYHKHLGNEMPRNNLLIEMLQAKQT
Experiment [4] addresses T2, Retinoic acid receptor RXR-alpha (Homo sapiens) (UniProt P19793).
T2 sequence (whole entry): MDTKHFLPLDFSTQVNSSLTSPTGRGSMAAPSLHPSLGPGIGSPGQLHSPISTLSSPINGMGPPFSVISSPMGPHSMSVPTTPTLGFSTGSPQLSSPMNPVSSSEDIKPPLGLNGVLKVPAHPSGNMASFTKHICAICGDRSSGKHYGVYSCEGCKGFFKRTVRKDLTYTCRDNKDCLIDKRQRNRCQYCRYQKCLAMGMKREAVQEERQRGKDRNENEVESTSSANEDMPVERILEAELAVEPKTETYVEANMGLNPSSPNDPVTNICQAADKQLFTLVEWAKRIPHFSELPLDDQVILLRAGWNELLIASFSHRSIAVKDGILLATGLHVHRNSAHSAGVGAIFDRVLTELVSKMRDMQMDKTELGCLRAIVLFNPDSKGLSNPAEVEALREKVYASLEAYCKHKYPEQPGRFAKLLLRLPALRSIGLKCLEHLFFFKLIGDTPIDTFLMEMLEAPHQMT
The experiment is described as follows: Selectivity interaction (Reporter gene assay) EUB0001164a RXRA. On the set-up: recommended concentration 1 uM. The following applies: reference bexarotene 1 uM, Selectivity number of off-targets 0.0, Selectivity number of targets 1.0, Source Knowledge inhouse.

Experiment [5] addresses Nuclear receptor subfamily 4immunitygroup A member 1 (Homo sapiens) (UniProt P22736). The experiment is described as follows: Selectivity interaction (Reporter gene assay) EUB0001164a NR4A1. On the set-up: recommended concentration 1 uM.
Experiment [6] addresses T3, Hepatocyte nuclear factor 4-alpha (Homo sapiens) (UniProt P41235).
T3 sequence (whole entry): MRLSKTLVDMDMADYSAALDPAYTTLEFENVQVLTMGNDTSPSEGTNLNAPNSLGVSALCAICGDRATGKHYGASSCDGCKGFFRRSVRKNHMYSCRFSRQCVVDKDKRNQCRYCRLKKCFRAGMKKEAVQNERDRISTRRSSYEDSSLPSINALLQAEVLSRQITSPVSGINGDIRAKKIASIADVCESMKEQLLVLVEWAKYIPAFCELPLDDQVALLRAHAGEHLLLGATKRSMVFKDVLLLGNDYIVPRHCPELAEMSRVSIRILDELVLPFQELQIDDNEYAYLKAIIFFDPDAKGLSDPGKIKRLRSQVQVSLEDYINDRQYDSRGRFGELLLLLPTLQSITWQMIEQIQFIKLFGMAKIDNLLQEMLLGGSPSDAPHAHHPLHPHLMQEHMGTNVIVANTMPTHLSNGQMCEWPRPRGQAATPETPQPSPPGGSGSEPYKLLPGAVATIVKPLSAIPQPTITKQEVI
The experiment is described as follows: Selectivity interaction (Reporter gene assay) EUB0001164a HNF4A. On the set-up: recommended concentration 1 uM.

The target of experiment [7] is T4, Nuclear receptor subfamily 2 group C member 1 (Homo sapiens) (UniProt P13056).
T4 sequence (whole entry): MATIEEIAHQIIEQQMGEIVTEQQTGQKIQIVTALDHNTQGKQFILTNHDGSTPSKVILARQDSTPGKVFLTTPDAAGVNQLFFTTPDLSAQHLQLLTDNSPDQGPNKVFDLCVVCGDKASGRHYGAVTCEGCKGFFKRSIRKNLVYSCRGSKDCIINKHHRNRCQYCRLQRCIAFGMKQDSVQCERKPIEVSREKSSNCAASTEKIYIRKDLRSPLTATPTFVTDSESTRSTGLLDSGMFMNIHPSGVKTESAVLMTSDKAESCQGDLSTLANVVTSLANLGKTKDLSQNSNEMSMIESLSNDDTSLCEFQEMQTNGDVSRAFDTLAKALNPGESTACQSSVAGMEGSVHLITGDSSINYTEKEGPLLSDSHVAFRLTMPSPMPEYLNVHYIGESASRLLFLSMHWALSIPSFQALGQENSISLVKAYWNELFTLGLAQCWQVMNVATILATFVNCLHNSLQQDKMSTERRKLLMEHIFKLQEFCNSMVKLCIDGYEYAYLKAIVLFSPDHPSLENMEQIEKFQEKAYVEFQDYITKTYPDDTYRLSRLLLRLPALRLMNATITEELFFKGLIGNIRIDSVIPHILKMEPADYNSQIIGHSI
The experiment in a line: Selectivity interaction (Reporter gene assay) EUB0001164a NR2C1. The arrangement: recommended concentration 1 uM.

For experiment [8], the target named is T3, Hepatocyte nuclear factor 4-alpha (Homo sapiens). The experiment in a line: Selectivity interaction (Reporter gene assay) EUB0001169a HNF4A. The arrangement: recommended concentration 1 uM.
Experiment [9] concerns the target T2, Retinoic acid receptor RXR-alpha (Homo sapiens). The experiment in a line: Selectivity interaction (Reporter gene assay) EUB0001169a RXRA. The arrangement: recommended concentration 1 uM.
Experiment [10] has as its target T1, Alpha trans-inducing protein (Human alphaherpesvirus 1). The experiment in a line: Selectivity interaction (Reporter gene assay) EUB0001169a UL48. On the set-up: recommended concentration 1 uM.
Experiment [11] has as its target Nuclear receptor subfamily 2 group E member 1 (Homo sapiens) (UniProt Q9Y466). The experiment in a line: Selectivity interaction (Reporter gene assay) EUB0001169a NR2E1. The arrangement: recommended concentration 1 uM.
In experiment [12] the target is T4, Nuclear receptor subfamily 2 group C member 1 (Homo sapiens). The experiment in a line: Selectivity interaction (Reporter gene assay) EUB0001169a NR2C1. On the set-up: recommended concentration 1 uM.
Experiment [13] has as its target Nuclear receptor subfamily 4immunitygroup A member 1 (Homo sapiens) (UniProt P22736). The experiment in a line: Selectivity interaction (Reporter gene assay) EUB0001169a NR4A1. The arrangement: recommended concentration 1 uM.
Experiment [14] addresses Steroidogenic factor 1 (Homo sapiens) (UniProt Q13285). The experiment in a line: Selectivity interaction (Reporter gene assay) EUB0001169a NR5A1. On the set-up: recommended concentration 1 uM. The following applies: screened at recom. conc., Selectivity number of off-targets 1.0, Selectivity number of targets 5.0, Source Knowledge inhouse.
Experiment [15] addresses T4, Nuclear receptor subfamily 2 group C member 1 (Homo sapiens). The following applies: screened at recom. conc., Selectivity number of off-targets 1.0, Selectivity number of targets 5.0, Source Knowledge inhouse.
Experiment [16] addresses T3, Hepatocyte nuclear factor 4-alpha (Homo sapiens).
For experiment [17], the target named is Nuclear receptor ROR-alpha (Homo sapiens) (UniProt P35398). The following applies: screened at recom. conc., Selectivity number of off-targets 1.0, Selectivity number of targets 19.0, Source Knowledge inhouse.
Chain of Nuclear receptor ROR-alpha (Homo sapiens) (P35398 whole entry): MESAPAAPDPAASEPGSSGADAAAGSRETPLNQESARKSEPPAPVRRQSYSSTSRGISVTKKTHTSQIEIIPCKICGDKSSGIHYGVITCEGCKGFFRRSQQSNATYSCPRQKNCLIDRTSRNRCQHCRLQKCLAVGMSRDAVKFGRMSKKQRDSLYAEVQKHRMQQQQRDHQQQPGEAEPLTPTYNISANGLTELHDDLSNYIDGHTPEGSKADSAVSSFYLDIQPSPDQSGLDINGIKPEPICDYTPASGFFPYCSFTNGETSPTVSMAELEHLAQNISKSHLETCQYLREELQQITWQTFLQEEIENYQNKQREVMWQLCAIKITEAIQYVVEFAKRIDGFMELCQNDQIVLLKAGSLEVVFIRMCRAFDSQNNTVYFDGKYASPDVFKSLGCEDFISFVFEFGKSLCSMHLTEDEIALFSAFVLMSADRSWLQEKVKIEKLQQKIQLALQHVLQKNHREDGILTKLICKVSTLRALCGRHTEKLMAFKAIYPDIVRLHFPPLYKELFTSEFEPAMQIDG
Experiment [18] concerns the target T1, Alpha trans-inducing protein (Human alphaherpesvirus 1). The experiment in a line: Selectivity interaction (Reporter gene assay) EUB0001161a UL48. On the set-up: recommended concentration 10 uM.
Experiment [19] has as its target Nuclear receptor subfamily 4immunitygroup A member 1 (Homo sapiens) (UniProt P22736).
Experiment [20] addresses Steroidogenic factor 1 (Homo sapiens) (UniProt Q13285). The experiment in a line: Selectivity interaction (Reporter gene assay) EUB0001161a NR5A1. On the set-up: recommended concentration 10 uM.
Experiment [21] deals with Nuclear receptor subfamily 2 group E member 1 (Homo sapiens) (UniProt Q9Y466).
Experiment [22] has as its target T3, Hepatocyte nuclear factor 4-alpha (Homo sapiens). The experiment in a line: Selectivity interaction (Reporter gene assay) EUB0001166a HNF4A. On the set-up: recommended concentration 1 uM.
The target of experiment [23] is Steroidogenic factor 1 (Homo sapiens) (UniProt Q13285). The experiment is described as follows: Selectivity interaction (Reporter gene assay) EUB0001166a NR5A1. On the set-up: recommended concentration 1 uM.
Experiment [24] addresses T1, Alpha trans-inducing protein (Human alphaherpesvirus 1). The experiment is described as follows: Selectivity interaction (Reporter gene assay) EUB0001166a UL48. The arrangement: recommended concentration 1 uM.
Experiment [25] deals with T4, Nuclear receptor subfamily 2 group C member 1 (Homo sapiens). The experiment is described as follows: Selectivity interaction (Reporter gene assay) EUB0001166a NR2C1. On the set-up: recommended concentration 1 uM.
Experiment [26] has as its target Nuclear receptor subfamily 2 group E member 1 (Homo sapiens) (UniProt Q9Y466). The experiment is described as follows: Selectivity interaction (Reporter gene assay) EUB0001166a NR2E1. On the set-up: recommended concentration 1 uM.
Experiment [27] concerns the target T2, Retinoic acid receptor RXR-alpha (Homo sapiens). The experiment is described as follows: Selectivity interaction (Reporter gene assay) EUB0001166a RXRA. On the set-up: recommended concentration 1 uM. The following applies: reference bexarotene 1 uM, Selectivity number of off-targets 0.0, Selectivity number of targets 1.0, Source Knowledge inhouse.
Experiment [28] concerns the target Nuclear receptor subfamily 4immunitygroup A member 1 (Homo sapiens) (UniProt P22736). The experiment is described as follows: Selectivity interaction (Reporter gene assay) EUB0001166a NR4A1. On the set-up: recommended concentration 1 uM.

Chain of Nuclear receptor subfamily 4immunitygroup A member 1 (Homo sapiens) (P22736 whole entry): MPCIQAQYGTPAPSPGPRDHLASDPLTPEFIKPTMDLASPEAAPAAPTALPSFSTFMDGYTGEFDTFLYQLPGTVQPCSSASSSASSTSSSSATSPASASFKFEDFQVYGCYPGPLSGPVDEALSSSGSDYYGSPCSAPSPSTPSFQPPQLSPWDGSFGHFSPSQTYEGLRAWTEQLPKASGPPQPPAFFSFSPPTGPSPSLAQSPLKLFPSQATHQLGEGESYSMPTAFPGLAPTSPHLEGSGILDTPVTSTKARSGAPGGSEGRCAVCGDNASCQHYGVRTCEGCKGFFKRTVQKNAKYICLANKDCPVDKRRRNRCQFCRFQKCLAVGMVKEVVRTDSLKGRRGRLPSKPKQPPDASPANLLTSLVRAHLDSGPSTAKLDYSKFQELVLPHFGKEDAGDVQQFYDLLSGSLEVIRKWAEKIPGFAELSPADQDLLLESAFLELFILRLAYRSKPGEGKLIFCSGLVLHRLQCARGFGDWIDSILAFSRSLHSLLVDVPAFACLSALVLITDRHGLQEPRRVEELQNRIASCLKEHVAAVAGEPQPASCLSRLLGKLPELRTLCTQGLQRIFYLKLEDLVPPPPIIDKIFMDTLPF
T1 sequence (A0A5J6DW59 as listed by the source): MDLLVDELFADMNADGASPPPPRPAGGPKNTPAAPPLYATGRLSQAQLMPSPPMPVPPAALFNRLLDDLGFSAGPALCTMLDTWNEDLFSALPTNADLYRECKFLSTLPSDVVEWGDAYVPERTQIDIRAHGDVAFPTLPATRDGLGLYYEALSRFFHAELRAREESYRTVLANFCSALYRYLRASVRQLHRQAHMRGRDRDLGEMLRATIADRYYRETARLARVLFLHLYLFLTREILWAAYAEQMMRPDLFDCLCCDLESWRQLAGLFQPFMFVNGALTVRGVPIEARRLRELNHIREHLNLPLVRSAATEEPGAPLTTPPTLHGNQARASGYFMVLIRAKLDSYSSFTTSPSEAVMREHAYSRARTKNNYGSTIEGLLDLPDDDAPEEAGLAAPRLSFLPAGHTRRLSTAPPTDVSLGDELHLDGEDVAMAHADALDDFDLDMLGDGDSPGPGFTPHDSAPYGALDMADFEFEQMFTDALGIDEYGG

`CCOC(=O)c1ccc(CN(Cc2ccc(-c3cccc(S(C)(=O)=O)c3)cc2)S(=O)(=O)c2c(C)cc(C)cc2C)o1` had a P-value in [1] of 0.0222. For the same compound, in experiment [2], the Remaining activity amounted to 0.776. The Fold activation in experiment [3] turned out to be 1.07; in experiment [5], 1.26; in [6], 1.29; in [7] it was 1.02. Besides, the Relative activation in [4] came to 0.903%.

In the case of `O=C(O)c1cc(F)c2nc(N3[C@@H]4CC[C@H]3C[C@@H](OCc3c(-c5ccccc5OC(F)(F)F)noc3C3CC3)C4)sc2c1`, the Remaining activity in [8] turned out to be 0.655; in [11], 0.961; in [13], 0.696; in [14], 0.47. Moreover, the Relative activation in [9] came out at 0.815%. Moreover, the P-value in experiment [10] turned out to be 0.00151. The same compound registered a Fold activation in experiment [12] of 1.28.

For the compound `COc1cc(O)c(C(CC(=O)N2C[C@H](C)C[C@H](C)C2)c2ccc3c(c2)OCO3)c(OC)c1` (stereo partly drawn), the Remaining activity in [15] stood at 0.425; in experiment [16], 0.972; in experiment [17], 0.851; in [19], 0.899; in experiment [20], 0.942; in [21], 0.509. In experiment [18], this compound returned a P-value of 0.000227.

`CC(C)(O)c1cn(-c2ccc(-c3cccc(S(C)(=O)=O)c3)cc2)c(C(C)(C)c2ccccc2Cl)n1`: the Fold activation in experiment [22] turned out to be 1.15; in experiment [23], 1.21; in experiment [25], 1.38; in experiment [28], 1.01. Further, in experiment [24], the P-value is 0.000455. Also, the Remaining activity in experiment [26] turned out to be 0.931. In addition, the Relative activation in experiment [27] worked out at 0.459%.
